Assay results as given in US10745382B2 (BRISTOL-MYERS SQUIBB COMPANY, priority 2015, dated 2020).

Biological target: T1, PD-1/PD-L1 (Homo sapiens, UniProt Q9NZQ7)
T1 construct: made in house; host or cells: HEK293T
Test: PD-1/PD-L1 Homogenous Time-Resolved Fluorescence (HTRF) binding assay
Conditions: PD-L1-His 10 nM, PD-1-Ig 20 nM; value given as range class; read-out: Range or IC50
Outline: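 Binding measured in dPBS with 0.1% BSA and 0.05% Tween-20, detected by HTRF with europium cryptate anti-Ig (1 nM final) and APC anti-His (20 nM final) added over the binding reaction. Counter-assays used human PD-1-Ig/PD-L2-His (20 and 5 nM) and CD80-His/PD-L1-Ig (100 and 10 nM).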

T1 sequence (Q9NZQ7 with tags, fused parts or gaps): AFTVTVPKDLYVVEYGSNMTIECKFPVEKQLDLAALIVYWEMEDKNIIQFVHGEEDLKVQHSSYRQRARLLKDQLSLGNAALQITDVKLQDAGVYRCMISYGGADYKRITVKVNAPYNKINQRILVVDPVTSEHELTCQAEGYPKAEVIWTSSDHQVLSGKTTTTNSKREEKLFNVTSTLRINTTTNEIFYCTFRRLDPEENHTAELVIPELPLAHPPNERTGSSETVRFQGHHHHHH

IC50 [nM] | SMILES
100 to 2000 | CCN(CC)C(=O)c1cccc(-c2cccc(COc3cc(OCc4cncc(C#N)c4)c(CNC(CO)CO)cc3Cl)c2C)c1C [Example 4044, 3′-((2-chloro-5-((5-cyanopyridin-3-yl)methoxy)-4-(((1,3-dihydroxypropan-2-yl)amino)methyl)phenoxy)methyl)-N,N-diethyl-2,2′-dimethyl-[1,1′-biphenyl]-3-carboxamide]
0.21 to 10 | Cc1c(COc2cc(OCc3cncc(C#N)c3)c(CN[C@H](C(=O)O)C(C)C)cc2Cl)cccc1-c1cccc(OCCCN2CC[C@@H](O)C2)c1C [Example 4150, (5-chloro-2-((5-cyanopyridin-3-yl)methoxy)-4-((3′-(3-((R)-3-hydroxypyrrolidin-1-yl)propoxy)-2,2′-dimethyl-[1,1′-biphenyl]-3-yl)methoxy)benzyl)-L-valine]
0.21 to 10 | Cc1c(COc2cc(OCc3cc(F)cc(F)c3)c(CNC(C)(CO)CO)cc2Cl)cccc1-c1cccc(OCCCN2CC[C@@H](O)C2)c1C [Example 4520, (R)-2-((5-chloro-2-((3,5-difluorobenzyl)oxy)-4-((3′-(3-(3-hydroxypyrrolidin-1-yl)propoxy)-2,2′-dimethyl-[1,1′-biphenyl]-3-yl)methoxy)benzyl)amino)-2-methylpropane-1,3-diol]
0.21 to 10 | CO[C@@H]1CCN(CCCOc2cccc(-c3cccc(COc4cc(OCc5cncc(C#N)c5)c(CO)cc4Cl)c3C)c2C)C1 [Example 2277, 5-((4-chloro-2-(hydroxymethyl)-5-((3′-(3-((R)-3-methoxypyrrolidin-1-yl)propoxy)-2,2′-dimethylbiphenyl-3-yl)methoxy)phenoxy)methyl)nicotinonitrile]
0.21 to 10 | Cc1c(COc2cc(OCc3cncc(C#N)c3)c(CNCCN3CCOCC3)cc2Cl)cccc1-c1cccc(OCCCN2CC[C@@H](O)C2)c1C [Example 2122, (R)-5-((4-chloro-5-((3′-(3-(3-hydroxypyrrolidin-1-yl)propoxy)-2,2′-dimethyl-[1,1′-biphenyl]-3-yl)methoxy)-2-(((2-morpholinoethyl)amino)methyl)phenoxy)methyl)nicotinonitrile]
2010 to 10000 | Cc1c(COc2cc(OCc3cncc(C#N)c3)c(CN[C@](C)(CO)C(=O)O)cc2Cl)cccc1-c1cc(C#Cc2ccccc2)cc(OCCCN2CC[C@@H](O)C2)c1 [Example 3045, (R)-2-((5-chloro-2-((5-cyanopyridin-3-yl)methoxy)-4-((3′-(3-((R)-3-hydroxypyrrolidin-1-yl)propoxy)-2-methyl-5′-(phenylethynyl)-[1,1′-biphenyl]-3-yl)methoxy)benzyl)amino)-3-hydroxy-2-methylpropanoic Acid]
0.21 to 10 | Cc1c(COc2cc(OCc3cncc(C#N)c3)c(CNC(C)(CO)CO)cc2Cl)cccc1-c1cccc(OCCCNC(=O)Cc2ccccn2)c1Cl [Example 2089, N-(3-((2-chloro-3′-((2-chloro-5-((5-cyanopyridin-3-yl)methoxy)-4-(((1,3-dihydroxy-2-methylpropan-2-yl)amino)methyl)phenoxy)methyl)-2′-methyl-[1,1′-biphenyl]-3-yl)oxy)propyl)-2-(pyridin-2-yl)acetamide]
100 to 2000 | CCNC(=O)c1cccc(-c2cccc(COc3cc(OCc4cc(F)cc(F)c4)c(CN4CCCC[C@H]4C(=O)O)cc3Cl)c2C)c1C [Example 4017, (S)-1-(5-chloro-2-((3,5-difluorobenzyl)oxy)-4-((3′-(ethylcarbamoyl)-2,2′-dimethyl-[1,1′-biphenyl]-3-yl)methoxy)benzyl)piperidine-2-carboxylic Acid]
0.21 to 10 | Cc1c(COc2cc(OCc3cncc(C#N)c3)c(CNC[C@H](O)CO)cc2Cl)cccc1-c1cccc(OCCCN2CC[C@H](CO)[C@H](O)C2)c1Cl [Example 2031, 5-((4-chloro-5-((2′-chloro-3′-(3-((3 S,4R)-3-hydroxy-4-(hydroxymethyl)piperidin-1-yl)propoxy)-2-methyl-[1,1′-biphenyl]-3-yl)methoxy)-2-((((S)-2,3-dihydroxypropyl)amino)methyl)phenoxy)methyl)nicotinonitrile]
0.21 to 10 | Cc1c(OCCCN2CC[C@H](CO)[C@H](O)C2)cccc1-c1cccc(COc2cc(OCc3cncc(C#N)c3)c(CNC(CO)CO)cc2Cl)c1Cl [Example 2298, 5-((4-chloro-5-((2-chloro-3′-(3-((3S,4R)-3-hydroxy-4-(hydroxymethyl)piperidin-1-yl)propoxy)-2′-methyl-[1,1′-biphenyl]-3-yl)methoxy)-2-(((1,3-dihydroxypropan-2-yl)amino)methyl)phenoxy)methyl)nicotinonitrile]
0.21 to 10 | CC(CO)(CO)NCc1cc(Cl)c(OCc2cccc(-c3cccc(OCCCN4CC[C@@H](O)C4)c3Cl)c2Cl)cc1OCCC(F)(F)F [Example 2107, (R)-2-((5-chloro-4-((2,2′-dichloro-3′-(3-(3-hydroxypyrrolidin-1-yl)propoxy)-[1,1′-biphenyl]-3-yl)methoxy)-2-(3,3,3-trifluoropropoxy)benzyl)amino)-2-methylpropane-1,3-diol]
0.21 to 10 | Cc1c(COc2cc(OCc3cncc(C#N)c3)c(CN(CCO)[C@@](C)(CO)C(=O)O)cc2Cl)cccc1-c1cccc(OCCCN2CC[C@@H](O)C2)c1C [Example 4111, (S)-2-((5-chloro-2-((5-cyanopyridin-3-yl)methoxy)-4-((3′-(3-((R)-3-hydroxypyrrolidin-1-yl)propoxy)-2,2′-dimethyl-[1,1′-biphenyl]-3-yl)methoxy)benzyl)(2-hydroxyethyl)amino)-3-hydroxy-2-methylpropanoic Acid]
0.21 to 10 | Cc1c(COc2cc(OCc3cncc(C#N)c3)c(CN[C@@](C)(CO)C(=O)O)cc2Cl)cccc1-c1cccc(OCC2(CN3CC[C@@H](O)C3)CC2)c1C [Example 2348, (S)-2-((5-chloro-2-((5-cyanopyridin-3-yl)methoxy)-4-((3′-((1-(((R)-3-hydroxypyrrolidin-1-yl)methyl)cyclopropyl)methoxy)-2,2′-dimethyl-[1,1′-biphenyl]-3-yl)methoxy)benzyl)amino)-3-hydroxy-2-methylpropanoic Acid]
0.21 to 10 | Cc1c(OCCCN2CCS(=O)(=O)CC2)cccc1-c1cccc(COc2cc(OCc3cncc(C#N)c3)c(CN3CCCC[C@H]3C(=O)O)cc2Cl)c1Cl [Example 2310, (S)-1-(5-chloro-4-((2-chloro-3′-(3-(1,1-dioxidothiomorpholino)propoxy)-2′-methyl-[1,1′-biphenyl]-3-yl)methoxy)-2-((5-cyanopyridin-3-yl)methoxy)benzyl)piperidine-2-carboxylic Acid]
100 to 2000 | Cc1c(COc2cc(OCc3cncc(C#N)c3)c(CN3CCOC[C@H]3C(=O)O)cc2Cl)cccc1-c1cccc(C(=O)N2CCOCC2)c1C [Example 4054, (S)-4-(5-chloro-2-((5-cyanopyridin-3-yl)methoxy)-4-((2,2′-dimethyl-3′-(morpholine-4-carbonyl)-[1,1′-biphenyl]-3-yl)methoxy)benzyl)morpholine-3-carboxylic Acid]
0.21 to 10 | N#Cc1cncc(COc2cc(OCc3cccc(-c4cccc(OCCCN5CC[C@@H](O)C5)c4Cl)c3Cl)c(Cl)cc2CN2CCCC[C@H]2C(=O)O)c1 [Example 2106, (S)-1-(5-chloro-2-((5-cyanopyridin-3-yl)methoxy)-4-((2,2′-dichloro-3′-(3-((R)-3-hydroxypyrrolidin-1-yl)propoxy)-[1,1′-biphenyl]-3-yl)methoxy)benzyl)piperidine-2-carboxylic Acid]
0.21 to 10 | CCN(Cc1cc(Cl)c(OCc2cccc(-c3cccc(OCCCN4CC[C@@H](O)C4)c3C)c2C)cc1OCc1cncc(C#N)c1)[C@@](C)(CO)C(=O)O [Example 4109, (S)-2-((5-chloro-2-((5-cyanopyridin-3-yl)methoxy)-4-((3′-(3-((R)-3-hydroxypyrrolidin-1-yl)propoxy)-2,2′-dimethyl-[1,1′-biphenyl]-3-yl)methoxy)benzyl)(ethyl)amino)-3-hydroxy-2-methylpropanoic Acid]
0.21 to 10 | Cc1c(COc2cc(OCc3cncc(C#N)c3)c(CN(C)[C@@H](CCO)C(=O)O)cc2Cl)cccc1-c1cccc(OCCCN2CC[C@@H](O)C2)c1C [Example 4135, N-(5-chloro-2-((5-cyanopyridin-3-yl)methoxy)-4-((3′-(3-((R)-3-hydroxypyrrolidin-1-yl)propoxy)-2,2′-dimethyl-[1,1′-biphenyl]-3-yl)methoxy)benzyl)-N-methyl-L-homoserine]
0.21 to 10 | Cc1c(COc2cc(OCc3cncc(C#N)c3)c(CN[C@](C)(CO)C(=O)O)cc2Cl)cccc1-c1cccc(OCCCN2CCC[C@H](C(=O)O)C2)c1Cl [Example 2008, (S)-1-(3-((3′-((4-((((R)-2-carboxy-1-hydroxypropan-2-yl)amino)methyl)-2-chloro-5-((5-cyanopyridin-3-yl)methoxy)phenoxy)methyl)-2-chloro-2′-methyl-[1,1′-biphenyl]-3-yl)oxy)propyl)piperidine-3-carboxylic Acid]
0.21 to 10 | Cc1c(COc2cc(OCc3cncc(C#N)c3)c(CN3CCC[C@@H]3CO)cc2Cl)cccc1-c1cccc(OCCCN2CCC[C@@H]2CO)c1F [Example 1534, 5-((4-chloro-5-((2′-fluoro-3′-(3-((R)-2-(hydroxymethyl)pyrrolidin-1-yl)propoxy)-2-methyl-[1,1′-biphenyl]-3-yl)methoxy)-2-(((R)-2-(hydroxymethyl)pyrrolidin-1-yl)methyl)phenoxy)methyl)nicotinonitrile]
0.21 to 10 | CC(CO)(CO)NCc1cc(Cl)c(OCc2cccc(-c3cccc(OCCCN4CC[C@@H](O)C4)c3Cl)c2Cl)cc1OCc1cncc(C#N)c1 [Example 2053, (R)-5-((4-chloro-5-((2,2′-dichloro-3′-(3-(3-hydroxypyrrolidin-1-yl)propoxy)-[1,1′-biphenyl]-3-yl)methoxy)-2-(((1,3-dihydroxy-2-methylpropan-2-yl)amino)methyl)phenoxy)methyl)nicotinonitrile]
